Results reported in ChEMBL document CHEMBL4725437, “P450s under Restriction (PURE) Screen Using HepaRG and Primary Human Hepatocytes for Discovery of Novel HBV Antivirals” (ACS Med Chem Lett, 2020).
The source made the active and inactive calls. The calls are words filed in the database; no cut-off is given here.

Assays:
Cytochrome P450 1A2 [1] = target: T1, Cytochrome P450 1A2 (Homo sapiens, UniProt P05177); assay: Inhibition of CYP1A2 in HBV-infected human HepaRG cells at 5 to 100 uM using luciferin-1A2 as substrate treated for 1 hr on day 5 post-infection followed by removal of media and supplemented with fresh media and further incubated for 3 days then followed by treatment for 1 hr on day 8 post-infection followed by removal of media and supplemented with fresh media and further incubated for 3 days and measured on day 11 post-infection by P450-Glo chemiluminescent assay; type: ADME, tissue-based; details: dose 5-100 µM
T1 sequence (P05177 whole entry): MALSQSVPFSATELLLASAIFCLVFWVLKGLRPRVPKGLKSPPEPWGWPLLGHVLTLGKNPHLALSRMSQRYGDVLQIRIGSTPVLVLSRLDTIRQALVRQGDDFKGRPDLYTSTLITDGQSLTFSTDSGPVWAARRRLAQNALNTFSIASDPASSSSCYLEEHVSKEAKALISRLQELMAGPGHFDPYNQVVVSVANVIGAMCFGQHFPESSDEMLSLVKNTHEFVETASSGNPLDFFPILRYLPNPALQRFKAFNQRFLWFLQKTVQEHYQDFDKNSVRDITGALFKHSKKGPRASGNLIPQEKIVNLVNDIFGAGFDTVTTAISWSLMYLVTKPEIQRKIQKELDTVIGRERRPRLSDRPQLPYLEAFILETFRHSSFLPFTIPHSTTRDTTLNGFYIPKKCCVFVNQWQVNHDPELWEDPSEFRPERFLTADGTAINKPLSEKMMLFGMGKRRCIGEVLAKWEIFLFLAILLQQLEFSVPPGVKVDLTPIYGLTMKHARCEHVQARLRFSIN

CYP2C9 [2] = target: T2, CYP2C9 (Homo sapiens, UniProt P11712); assay: Inhibition of CYP2C9 in HBV-infected human HepaRG cells at 50 uM using luciferin-H as substrate treated for 1 hr on day 5 post-infection followed by removal of media and supplemented with fresh media and further incubated for 3 days then followed by treatment for 1 hr on day 8 post-infection followed by removal of media and supplemented with fresh media and further incubated for 3 days in presence of 10 mM ABT and measured on day 11 post-infection by P450-Glo chemiluminescent assay relative to control; type: ADME, tissue-based; details: probe luciferin-H, with ABT 10 mM
Cytochrome P450 2C9 = Cytochrome P450 2C9 (Homo sapiens, UniProt P11712); assay: Inhibition of CYP2C9 in HBV-infected human HepaRG cells at 5 to 100 uM using luciferin-H as substrate treated for 1 hr on day 5 post-infection followed by removal of media and supplemented with fresh media and further incubated for 3 days then followed by treatment for 1 hr on day 8 post-infection followed by removal of media and supplemented with fresh media and further incubated for 3 days and measured on day 11 post-infection by P450-Glo chemiluminescent assay; type: ADME, tissue-based; details: dose 5-100 µM
CYP3A4 = CYP3A4 (Homo sapiens, UniProt P08684); assay: Inhibition of CYP3A4 in HBV-infected human HepaRG cells at 50 uM using luciferin-IPA as substrate treated for 1 hr on day 5 post-infection followed by removal of media and supplemented with fresh media and further incubated for 3 days by P450-Glo chemiluminescent assay relative to control; type: ADME, tissue-based; details: probe luciferin-IPA
CYP2C9 [3] = target: T2, CYP2C9; assay: Inhibition of CYP2C9 in HBV-infected human HepaRG cells at 50 uM using luciferin-H as substrate treated for 1 hr on day 5 post-infection followed by removal of media and supplemented with fresh media and further incubated for 3 days in presence of 10 mM ABT by P450-Glo chemiluminescent assay relative to control; type: ADME, tissue-based; details: probe luciferin-H, with ABT 10 mM
Cytochrome P450 3A4 [4] = target: T3, Cytochrome P450 3A4 (Homo sapiens, UniProt P08684); assay: Inhibition of CYP3A4 in HBV-infected human HepaRG cells at 5 to 100 uM using luciferin-IPA as substrate treated for 1 hr on day 5 post-infection followed by removal of media and supplemented with fresh media and further incubated for 3 days then followed by treatment for 1 hr on day 8 post-infection followed by removal of media and supplemented with fresh media and further incubated for 3 days and measured on day 11 post-infection by P450-Glo chemiluminescent assay; type: ADME, tissue-based; details: dose 5-100 µM
Cytochrome P450 3A4 [5] = target: T3, Cytochrome P450 3A4; assay: Inhibition of CYP3A4 in HBV-infected human HepaRG cells at 0.2 to 20 mM using luciferin-IPA as substrate treated for 1 hr on day 5 post-infection followed by removal of media and supplemented with fresh media and further incubated for 3 days then followed by treatment for 1 hr on day 8 post-infection followed by removal of media and supplemented with fresh media and further incubated for 3 days and measured on day 11 post-infection by P450-Glo chemiluminescent assay; type: ADME, tissue-based; details: 20000 µM, dose 0.2-20 mM
Cytochrome P450 1A2 [6] = target: T1, Cytochrome P450 1A2; assay: Inhibition of CYP1A2 in HBV-infected human HepaRG cells at 0.2 to 20 mM using luciferin-1A2 as substrate treated for 1 hr on day 5 post-infection followed by removal of media and supplemented with fresh media and further incubated for 3 days then followed by treatment for 1 hr on day 8 post-infection followed by removal of media and supplemented with fresh media and further incubated for 3 days and measured on day 11 post-infection by P450-Glo chemiluminescent assay; type: ADME, tissue-based; details: 20000 µM, dose 0.2-20 mM
Cytochrome P450 3A4 [7] = target: T3, Cytochrome P450 3A4; assay: Inhibition of CYP3A4 in HBV-infected human primary hepatocytes at 0.2 to 20 mM using luciferin-IPA as substrate treated for 1 hr on day 5 post-infection followed by removal of media and supplemented with fresh media and further incubated for 3 days then followed by treatment for 1 hr on day 8 post-infection followed by removal of media and supplemented with fresh media and further incubated for 3 days and measured on day 11 post-infection by P450-Glo chemiluminescent assay; type: ADME, tissue-based, Primary hepatocyte; details: 20000 µM, dose 0.2-20 mM
Hepatitis B virus = assay: Antiviral activity against Hepatitis B virus infected in human HepaRG cells assessed as reduction in HbsAg secretion level at 10 mM treated for 1 hr on day 5 post-infection followed by removal of media and supplemented with fresh media and further incubated for 3 B37days then followed by treatment for 1 hr on day 8 post-infection followed by removal of media and supplemented with fresh media and further incubated for 3 days in presence of 50 uM SKF-525Aand measured on day 11 post-infection by chemiluminescence immunostaining assay; type: functional, organism-based
CYP2C9 [8] = target: T2, CYP2C9; assay: Inhibition of CYP2C9 in HBV-infected human HepaRG cells at 10 mM using luciferin-H as substrate treated for 1 hr on day 5 post-infection followed by removal of media and supplemented with fresh media and further incubated for 3 days then followed by treatment for 1 hr on day 8 post-infection followed by removal of media and supplemented with fresh media and further incubated for 3 days and measured on day 11 post-infection by P450-Glo chemiluminescent assay relative to control; type: ADME, tissue-based; details: probe luciferin-H

T3 sequence (P08684 whole entry): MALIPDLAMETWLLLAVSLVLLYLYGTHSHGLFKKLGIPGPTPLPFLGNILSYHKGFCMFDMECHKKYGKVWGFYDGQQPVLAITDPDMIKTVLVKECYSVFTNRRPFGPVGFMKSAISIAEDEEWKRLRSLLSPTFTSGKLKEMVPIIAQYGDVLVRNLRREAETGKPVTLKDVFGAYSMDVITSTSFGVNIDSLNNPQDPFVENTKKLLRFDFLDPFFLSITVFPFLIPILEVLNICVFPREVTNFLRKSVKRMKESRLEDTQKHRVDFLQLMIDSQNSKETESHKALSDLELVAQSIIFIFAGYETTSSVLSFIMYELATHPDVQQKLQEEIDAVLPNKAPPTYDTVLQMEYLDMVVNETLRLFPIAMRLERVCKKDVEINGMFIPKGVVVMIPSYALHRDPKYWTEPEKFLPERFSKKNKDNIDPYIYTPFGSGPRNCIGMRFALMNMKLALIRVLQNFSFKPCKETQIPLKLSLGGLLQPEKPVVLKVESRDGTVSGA
T2 sequence (P11712 whole entry): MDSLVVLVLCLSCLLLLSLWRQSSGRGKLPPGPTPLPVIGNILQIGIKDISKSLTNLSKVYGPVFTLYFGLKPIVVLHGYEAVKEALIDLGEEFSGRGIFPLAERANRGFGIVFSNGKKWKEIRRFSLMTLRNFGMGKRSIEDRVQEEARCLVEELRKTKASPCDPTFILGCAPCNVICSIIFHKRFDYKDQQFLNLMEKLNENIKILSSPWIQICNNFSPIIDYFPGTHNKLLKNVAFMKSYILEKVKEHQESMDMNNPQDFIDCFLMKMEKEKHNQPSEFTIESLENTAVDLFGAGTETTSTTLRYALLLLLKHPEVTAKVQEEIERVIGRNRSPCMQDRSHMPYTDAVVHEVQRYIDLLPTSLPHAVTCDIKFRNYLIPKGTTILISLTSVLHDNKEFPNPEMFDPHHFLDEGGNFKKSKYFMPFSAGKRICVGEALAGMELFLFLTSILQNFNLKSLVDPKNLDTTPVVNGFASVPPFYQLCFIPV
Sequence of CYP3A4 (P08684 whole entry): as the sequence (P08684 whole entry) above
Sequence of Cytochrome P450 2C9 (P11712 whole entry): as the sequence (P11712 whole entry) above

Compound | inhibition (INH) (Cytochrome P450 1A2 [1]) | inhibition at 1 h, 50 µM (CYP2C9 [2]) [%] | inhibition (INH) (Cytochrome P450 2C9) | inhibition at 1 h, 50 µM (CYP3A4) [%] | inhibition at 1 h, 50 µM (CYP2C9 [3]) [%] | inhibition (INH) (Cytochrome P450 3A4 [4]) | inhibition (INH) (Cytochrome P450 3A4 [5]) | inhibition (INH) (Cytochrome P450 1A2 [6]) | inhibition (INH) (Cytochrome P450 3A4 [7]) | Activity (Hepatitis B virus) | inhibition at 1 h, 10000 µM (CYP2C9 [8]) [%]
CCCC(C(=O)OCCN(CC)CC)(c1ccccc1)c1ccccc1 [PROADIFEN] | Active | 82.1 | Active | 80.3 | 36.9 | Active |  |  |  |  | 
Nn1nnc2ccccc21 |  |  |  |  |  |  | Active | Active | Active | inactive | 67.5
